In patent US20130158066A1, “4-AZAINDOLE INHIBITORS OF CRAC” (Hoffmann-La Roche Inc., priority 2011, published 2013) one finds IC50 data, which are given here for twelve molecules.

The subject of this assay is IL-2 production in Jurkat cell. Nature of the assay: Jurkat IL-2 Production Assay. It is filed as cell-based. The note with it: Homo sapiens, Jurkat cell (ATCC), 18-20 h incubation, serum/stimulant condition (1% FBS/PHA or 30% FBS/PMA-ionomycin) not given. The method, then:
Jurkat IL-2 Production Assay
Jurkat cell (ATCC) was grown in RPMI 1640 with 10% FBS and 1% penicillin/streptomycin. The cell density was kept at 1.2˜1.8×10^6/mL in culture flask before seeding into culture plate, and the cell density in the plate was 0.5×10^6/[…]/well.
RPMI 1640 with 1% FBS or 30% FBS for high serum assay.
serial dilution was done in 100% DMSO, and intermediate dilution was done with RPMI 1640 medium with 1% FBS. The DMSO final concentration in culture well was 0.25%.
PHA (Sigma#L9017-10MG) was used for the assay with 1% FBS in culture medium, and added after 10 minutes exposure of cell to compound/DMSO. The PHA final concentration in culture well was 5 μg/mL. PMA (Sigma# P-8139 5MG)/Ionomycin (Sigma# I0634-5MG) was used for the assay with 30% FBS in culture medium, and added at same time point as the 1% FBS culture assay. The final concentration of PMA was 50 ng/mL, and Ionomycin final concentration was 500 ng/mL.
at 37° C. with 5% CO2 and 95% humidity for 18 h ˜20 h.
IC50 was calculated with the data analysis software XLfit4, General Pharmacology model 251.

In general, IC50 refers to the concentration that inhibits the measured activity by half.

In the case of `Cc1cc(S(=O)(=O)N(C)C)ccc1-c1ccc2[nH]c(-c3ccc(F)cc3Cl)cc2n1` [Example 9, 4-[2-(2-Chloro-4-fluoro-phenyl)-1H-pyrrolo[3,2-b]pyridin-5-yl]-3,N,N-trimethyl-benzenesulfonamide], half-maximal inhibition (IC50) required 98 nM.
To `Cc1cc(S(=O)(=O)N(C)C)ccc1-c1ccc2[nH]c(-c3c(F)cccc3Cl)cc2n1` [Example 6, 4-(2-(2-chloro-6-fluorophenyl)-1H-pyrrolo[3,2-b]pyridin-5-yl)-N,N,3-trimethylbenzenesulfonamide] belongs 92 nM.
`Cn1nc(C(F)(F)F)cc1-c1ccc2[nH]c(-c3ccc(F)cc3Cl)cc2n1` [Example 8, 2-(2-Chloro-4-fluoro-phenyl)-5-(2-methyl-5-trifluoromethyl-2H-pyrazol-3-yl)-1H-pyrrolo[3,2-b]pyridine] registered an IC50 of 147 nM.
To `Cc1cc(C#N)ccc1-c1ccc2[nH]c(-c3c(F)cccc3Cl)cc2n1` [Example 5, 4-(2-(2-chloro-6-fluorophenyl)-1H-pyrrolo[3,2-b]pyridin-5-yl)-3-methylbenzonitrile] belongs 347 nM; to `Cc1cc(S(=O)(=O)N(C)C)ccc1-c1ccc2[nH]c(-c3c(F)cccc3F)cc2n1` [Example 10, 4-[2-(2,6-Difluoro-phenyl)-1H-pyrrolo[3,2-b]pyridin-5-yl]-3,N,N-trimethyl-benzenesulfonamide], 134 nM.
In turn, `Cc1cc(C(F)(F)F)ccc1-c1ccc2[nH]c(-c3c(F)cccc3Cl)cc2n1` [Example 4, 2-(2-chloro-6-fluorophenyl)-5-(2-methyl-4-(trifluoromethyl)phenyl)-1H-pyrrolo[3,2-b]pyridine] displayed an IC50 of 80 nM.
As for `Cc1cc(S(=O)(=O)N(C)C)ccc1-c1ccc2[nH]c(-c3ccccc3Cl)cc2n1` [Example 7, 4-[2-(2-Chloro-phenyl)-1H-pyrrolo[3,2-b]pyridin-5-yl]-3,N,N-trimethyl-benzenesulfonamide], the figure is 300 nM.
To `COc1cc(F)c(-c2cc3nc(-c4ccc(S(=O)(=O)N(C)C)cc4C)ccc3[nH]2)c(F)c1` [Example 13, 4-(2-(2,6-difluoro-4-methoxyphenyl)-1H-pyrrolo[3,2-b]pyridin-5-yl)-N,N,3-trimethylbenzenesulfonamide] belongs 169 nM.
To `Cn1nc(C(F)(F)F)cc1-c1ccc2[nH]c(-c3c(F)cccc3F)cc2n1` [Example 12, 2-(2,6-Difluoro-phenyl)-5-(2-methyl-5-trifluoromethyl-2H-pyrazol-3-yl)-1H-pyrrolo[3,2-b]pyridine] belongs 200 nM; to `Cc1cc(C#N)ccc1-c1ccc2[nH]c(-c3c(F)cccc3F)cc2n1` [Example 11, 4-[2-(2,6-Difluoro-phenyl)-1H-pyrrolo[3,2-b]pyridin-5-yl]-3-methyl-benzonitrile], 767 nM.
Molecule `Cn1nc(C(F)(F)F)cc1-c1ccc2[nH]c(-c3c(F)cccc3Cl)cc2n1` [Example 3, 2-(2-Chloro-6-fluoro-phenyl)-5-(2-methyl-5-trifluoromethyl-2H-pyrazol-3-yl)-1H-pyrrolo[3,2-b]pyridine] displayed an IC50 of 94 nM.
Molecule `Cc1cc(Cl)ncc1-c1ccc2[nH]c(-c3c(F)cccc3Cl)cc2n1` [Example 2, 2-(2-Chloro-6-fluoro-phenyl)-5-(6-chloro-4-methyl-pyridin-3-yl)-1H-pyrrolo[3,2b]pyridine] gave an IC50 of 246 nM.
